Test results from the NIST ThermoML archive (doi:10.1021/je700261b).
Numbers after ± are expanded uncertainties.

Experiment: xn = mol fraction of the nth substance listed
Settings: Liquid

CCCCO [butan-1-ol] + O=C=O
Settings	mass density [kg/m3]
352.82 K, 13001 kPa, x2 = 0.1842	780.49 ± 0.58
352.82 K, 14050 kPa, x2 = 0.1842	781.67 ± 0.59
352.82 K, 15000 kPa, x2 = 0.1842	782.72 ± 0.6
352.82 K, 15999 kPa, x2 = 0.1842	783.84 ± 0.61
352.82 K, 17008 kPa, x2 = 0.1842	784.88 ± 0.62
352.82 K, 18066 kPa, x2 = 0.1842	786.01 ± 0.63
352.82 K, 19002 kPa, x2 = 0.1842	787.01 ± 0.64
352.82 K, 20015 kPa, x2 = 0.1842	788.03 ± 0.65
352.82 K, 21043 kPa, x2 = 0.1842	789.11 ± 0.66
352.82 K, 22025 kPa, x2 = 0.1842	790.1 ± 0.67
352.82 K, 23024 kPa, x2 = 0.1842	791.11 ± 0.68
352.82 K, 24015 kPa, x2 = 0.1842	792.1 ± 0.69
352.82 K, 25100 kPa, x2 = 0.1842	793.18 ± 0.7
352.83 K, 2007 kPa, x2 = 0.0857	766.96 ± 0.48
352.83 K, 3023 kPa, x2 = 0.0857	768.13 ± 0.49
352.83 K, 3953 kPa, x2 = 0.0857	769.18 ± 0.5
352.83 K, 5008 kPa, x2 = 0.0857	770.34 ± 0.51
352.83 K, 5991 kPa, x2 = 0.0857	771.43 ± 0.51
352.83 K, 7011 kPa, x2 = 0.0857	772.54 ± 0.52
352.83 K, 7992 kPa, x2 = 0.0857	773.57 ± 0.53
352.83 K, 9016 kPa, x2 = 0.0857	774.63 ± 0.54
352.83 K, 10033 kPa, x2 = 0.0857	775.71 ± 0.55
352.83 K, 10983 kPa, x2 = 0.0857	776.62 ± 0.56
352.83 K, 12020 kPa, x2 = 0.0857	777.74 ± 0.57
352.83 K, 13038 kPa, x2 = 0.0857	778.75 ± 0.58
352.83 K, 13990 kPa, x2 = 0.0857	779.64 ± 0.59
352.83 K, 14986 kPa, x2 = 0.0857	780.63 ± 0.6
352.83 K, 16028 kPa, x2 = 0.0857	781.61 ± 0.61
352.83 K, 16995 kPa, x2 = 0.0857	782.54 ± 0.62
352.83 K, 17994 kPa, x2 = 0.0857	783.45 ± 0.63
352.83 K, 18991 kPa, x2 = 0.0857	784.4 ± 0.64
352.83 K, 20014 kPa, x2 = 0.0857	785.33 ± 0.66
352.83 K, 21017 kPa, x2 = 0.0857	786.18 ± 0.67
352.83 K, 21993 kPa, x2 = 0.0857	787.09 ± 0.68
352.83 K, 23041 kPa, x2 = 0.0857	788.01 ± 0.69
352.83 K, 24037 kPa, x2 = 0.0857	788.92 ± 0.7
352.83 K, 25058 kPa, x2 = 0.0857	789.81 ± 0.71
352.85 K, 13091 kPa, x2 = 0.4972	783.81 ± 0.58
352.85 K, 13958 kPa, x2 = 0.4972	785.52 ± 0.59
352.85 K, 15066 kPa, x2 = 0.4972	787.67 ± 0.6
352.85 K, 16029 kPa, x2 = 0.4972	789.49 ± 0.61
352.85 K, 17077 kPa, x2 = 0.4972	791.44 ± 0.61
352.85 K, 18031 kPa, x2 = 0.4972	793.15 ± 0.62
352.85 K, 19033 kPa, x2 = 0.4972	794.93 ± 0.63
352.85 K, 20018 kPa, x2 = 0.4972	796.63 ± 0.64
352.85 K, 21055 kPa, x2 = 0.4972	798.4 ± 0.65
352.85 K, 22035 kPa, x2 = 0.4972	800 ± 0.65
352.85 K, 23067 kPa, x2 = 0.4972	801.7 ± 0.66
352.85 K, 24007 kPa, x2 = 0.4972	803.18 ± 0.67
352.85 K, 25035 kPa, x2 = 0.4972	804.81 ± 0.68
352.88 K, 14075 kPa, x2 = 0.5965	780.49 ± 0.6
352.88 K, 15042 kPa, x2 = 0.5965	783.18 ± 0.61
352.88 K, 16039 kPa, x2 = 0.5965	785.88 ± 0.61
352.88 K, 17076 kPa, x2 = 0.5965	788.55 ± 0.65
352.88 K, 18030 kPa, x2 = 0.5965	790.96 ± 0.63
352.88 K, 18449 kPa, x2 = 0.8663	712.26 ± 1.5
352.88 K, 19037 kPa, x2 = 0.5965	793.41 ± 0.64
352.88 K, 19044 kPa, x2 = 0.8663	719.05 ± 0.88
352.88 K, 20049 kPa, x2 = 0.5965	795.8 ± 0.65
352.88 K, 20064 kPa, x2 = 0.8663	729.73 ± 0.84
352.88 K, 21030 kPa, x2 = 0.5965	798.05 ± 0.65
352.88 K, 21052 kPa, x2 = 0.8663	739.04 ± 0.82
352.88 K, 22036 kPa, x2 = 0.5965	800.27 ± 0.66
352.88 K, 22047 kPa, x2 = 0.8663	747.62 ± 0.79
352.88 K, 23019 kPa, x2 = 0.5965	802.43 ± 0.66
352.88 K, 23067 kPa, x2 = 0.8663	755.76 ± 0.78
352.88 K, 24035 kPa, x2 = 0.8663	762.91 ± 0.78
352.88 K, 24039 kPa, x2 = 0.5965	804.6 ± 0.67
352.88 K, 25048 kPa, x2 = 0.8663	769.99 ± 0.77
352.88 K, 25092 kPa, x2 = 0.5965	806.79 ± 0.68
362.66 K, 20602 kPa, x2 = 0.9698	595.03 ± 1.1
362.66 K, 21041 kPa, x2 = 0.9698	604.05 ± 1.1
362.66 K, 22017 kPa, x2 = 0.9698	622.53 ± 1.1
362.66 K, 23022 kPa, x2 = 0.9698	639.79 ± 1.1
362.66 K, 24038 kPa, x2 = 0.9698	655.56 ± 1
362.66 K, 25046 kPa, x2 = 0.9698	669.85 ± 1
362.67 K, 1053 kPa, x2 = 0.0251	755.01 ± 0.48
362.67 K, 2066 kPa, x2 = 0.0251	756.19 ± 0.49
362.67 K, 3045 kPa, x2 = 0.0251	757.27 ± 0.49
362.67 K, 4013 kPa, x2 = 0.0251	758.36 ± 0.5
362.67 K, 5068 kPa, x2 = 0.0251	759.49 ± 0.51
362.67 K, 6009 kPa, x2 = 0.0251	760.49 ± 0.52
362.67 K, 6988 kPa, x2 = 0.0251	761.58 ± 0.53
